Here are results for two compounds from US6048893A, “Substituted phenyl compounds with a substituent having A 1,3-benzodioxole ring” (Rhone-Poulenc Rorer Limited, priority 1995, dated 2000).

Assay [1] deals with T1, rat cerebellum ETB receptors (Rattus norvegicus, UniProt P21451).
T1 construct: from tissue; host or cells: rat cerebellum, particulate fraction (4000 g pellet)
T1 sequence (P21451 27-442): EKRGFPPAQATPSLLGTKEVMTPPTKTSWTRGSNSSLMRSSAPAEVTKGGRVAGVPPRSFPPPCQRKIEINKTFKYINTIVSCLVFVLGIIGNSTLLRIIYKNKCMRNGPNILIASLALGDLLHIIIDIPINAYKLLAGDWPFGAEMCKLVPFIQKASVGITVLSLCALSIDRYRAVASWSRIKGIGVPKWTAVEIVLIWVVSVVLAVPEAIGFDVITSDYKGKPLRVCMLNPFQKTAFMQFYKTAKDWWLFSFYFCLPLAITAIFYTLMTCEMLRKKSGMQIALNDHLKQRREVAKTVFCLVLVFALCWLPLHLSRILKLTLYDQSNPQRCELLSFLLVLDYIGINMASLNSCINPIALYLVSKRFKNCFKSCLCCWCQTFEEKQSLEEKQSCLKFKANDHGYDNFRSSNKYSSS
The assay is described as follows: Inhibition of [125I]-ET-1 binding to rat cerebellum ETB receptors. Particulars: [125I]-ET-1 20 pM, 2 hours at 37 C; read-out: concentration producing 50% inhibition of the binding of [125I]-ET-1 to rat cerebellum ETB receptors. The protocol:
B) Preparation of ETB Receptors:
Rats are killed by cervical dislocation and the cerebellum tissue is removed into ice cold Tris buffer pH 7.4 containing sucrose (0.25M), ethylenediaminetetracetic acid (3 mM), and a cocktail of protease inhibitors. After homogenizing using a glass/teflon manual homogenizer, the samples are centrifuged at 4-- C for 17 minutes at 1000 g, and the resulting supernatants are retained. This material is centrifuged at 4000 g for 35 minutes at 4-- C and the pellets are resuspended in 50 mM Tris buffer pH 7.4, and the protein concentration is measured. Aliquots of […] are frozen in a mixture of methanol and solid carbon dioxide and stored at -20-- C until required. For use in the assay samples are diluted to the required concentration with Tris buffer pH 7.4 containing 0.1% bovine serum albumin.
Assays are performed using Millipore 96 well filtration plates with 0.22 μm filters in a final volume of […]. Mixtures consisting of test compound and [^125 I]-ET-1 (20 pM) in buffer pH 7.4 containing 0.1% bovine serum albumin are treated with either A10 cells or cerebellum protein. Total and non-specific binding are measured in the absence and presence of unlabeled ET-1 (100 nM). Approximately 60,000 A10 cells are used per well or 5 μg of cerebellum protein. Plates are incubated for 2 hours at 37-- C before the reaction is terminated by vacuum filtration. […]

Another assay deals with T2, A10 cell ETA receptors (Rattus norvegicus, UniProt P26684).
T2 construct: endogenous in cells; host or cells: A10 cells (frozen cells, about 60,000 per well)
T2 sequence (P26684 21-426): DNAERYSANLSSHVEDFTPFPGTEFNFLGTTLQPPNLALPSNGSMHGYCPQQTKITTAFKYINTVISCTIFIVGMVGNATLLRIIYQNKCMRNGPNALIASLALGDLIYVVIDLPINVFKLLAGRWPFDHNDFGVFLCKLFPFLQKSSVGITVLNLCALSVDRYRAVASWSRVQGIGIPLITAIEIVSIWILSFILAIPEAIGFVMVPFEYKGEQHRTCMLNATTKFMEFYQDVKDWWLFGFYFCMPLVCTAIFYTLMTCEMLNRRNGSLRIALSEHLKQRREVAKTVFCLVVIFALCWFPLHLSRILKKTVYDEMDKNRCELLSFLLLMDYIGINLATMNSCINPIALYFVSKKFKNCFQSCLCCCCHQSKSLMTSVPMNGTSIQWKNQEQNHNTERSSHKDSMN
As to the kind of experiment: Inhibition of [125I]-ET-1 binding to A10 cell ETA receptors. Particulars: [125I]-ET-1 20 pM, 2 hours at 37 C; read-out: concentration producing 50% inhibition of the binding of [125I]-ET-1 to A10 cell ETA receptors. The protocol:
A) Preparation of ETA Receptors:
A10 cells are grown to confluence in Dulbecco's modified essential medium containing 10% foetal calf serum. Two days after the final medium change cells are harvested by scraping from the base of the flask and centrifuged at 1500 rpm for 10 minutes at 4-- C in an bench centrifuge. The resulting pellets are washed in 50 mM Hepes buffer pH 7.3 containing calcium chloride (1 mM) and magnesium chloride (5 mM) and resuspended at a density of 140,000 cells/ml in the same. Cell suspensions are then frozen using a mixture of methanol and solid carbon dioxide and stored at -20-- C until required. For use in the assay cells are diluted to the required density with Hepes buffer pH 7.3.
Assays are performed using Millipore 96 well filtration plates with 0.22 μm filters in a final volume of […]. Mixtures consisting of test compound and [^125 I]-ET-1 (20 pM) in buffer pH 7.4 containing 0.1% bovine serum albumin are treated with either A10 cells or cerebellum protein. Total and non-specific binding are measured in the absence and presence of unlabeled ET-1 (100 nM). Approximately 60,000 A10 cells are used per well or 5 μg of cerebellum protein. Plates are incubated for 2 hours at 37-- C before the reaction is terminated by vacuum filtration. Plates are washed twice with assay buffer at 4-- C and the filters are punched out for gamma counting.

In the next assay the test system is hamster bleomycin model. Particulars: cited from earlier work.

SMILES strings stand for the structures. Non-standard residues stand in square brackets, D forms with d. Residues, ends and D or L forms follow the SMILES beside them.

Regarding `Cc1ccccc1[C@H](Oc1cc(OCc2ccc3c(c2)OCO3)ccc1C#N)C(=O)O`, the results for the IC50 (in assay [1]; at A10 cell ETA receptors) were 35 µM and 0.006 µM, respectively.
For the compound `CC(C)C[C@@H]1NC(=O)[C@@H](C(C)C)NC(=O)[C@@H]2CCCN2C(=O)[C@@H](CC(=O)O)NC(=O)[C@@H](Cc2c[nH]c3ccccc23)NC1=O` [BQ123] (cyclo(L[dW][dD]P[dV])), the anti-fibrotic effect entry with hamster bleomycin model is reported as “anti-fibrotic effects”.
